According to publication PMC5432571 (Frontiers in Molecular Neuroscience, 2017):
Like-named read-outs stand apart in the source and are kept apart here.

Key:
G254A-α1 GlyR = target: T1, G254A-α1 GlyR (Homo sapiens, UniProt P23415, G282A); experiment: Whole-cell patch-clamp of glycine-induced currents, G254A-α1 GlyR mutant expressed in CHO cells; type: cell-based; settings: for inhibition at 30 µM / inhibition at 100 µM / inhibition at 300 µM: CHO, long application protocol, read-out: inhibition of G254A-α1 GlyR mediated currents; for inhibition at 30 µM: NFA 30 μM; for inhibition at 100 µM: NFA 100 μM; for inhibition at 300 µM: NFA 300 μM
T1 construct: expressed in transfected cells; host or cells: CHO cells
T1 sequence (P23415 29-449 isoform P23415-2 G282A limits assumed): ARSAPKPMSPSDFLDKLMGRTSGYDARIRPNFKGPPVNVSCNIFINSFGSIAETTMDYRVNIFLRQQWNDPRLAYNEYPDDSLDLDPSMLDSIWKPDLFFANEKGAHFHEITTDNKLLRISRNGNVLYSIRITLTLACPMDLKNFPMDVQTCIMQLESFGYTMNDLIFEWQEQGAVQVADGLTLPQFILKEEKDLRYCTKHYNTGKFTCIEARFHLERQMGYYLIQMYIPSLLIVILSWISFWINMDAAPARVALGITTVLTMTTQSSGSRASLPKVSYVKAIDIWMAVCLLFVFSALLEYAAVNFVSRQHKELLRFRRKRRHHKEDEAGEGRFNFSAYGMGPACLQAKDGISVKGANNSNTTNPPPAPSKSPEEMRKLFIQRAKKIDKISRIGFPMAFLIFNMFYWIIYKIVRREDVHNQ
Procedure: The experiments were carried out on cultured Chinese hamster ovary (CHO) cells obtained from the American Type Tissue Culture Collection (ATCC, Molsheim, France) that were maintained in culture conditions as previously described (Mukhtarov et al., [2013]; Maleeva et al., [2015]).
One day before transfection, cells were plated on the cover slips (12 mm in diameter) and placed inside 35-mm cell culture dishes with 2 ml of medium. Transfection was performed using the Lipofectamine 3000 protocol (Life Technology, USA). To facilitate identification of transfected cells a green fluorescent protein (GFP) was added to the transfection mixture. For expression of functional heteromeric receptors, cells were simultaneously transfected with cDNAs of α and β subunits in the ratio 1:10. Three hours after the initial exposure of cells to the cDNAs the culture medium was replaced with that containing strychnine (1 μM), which prevents spontaneous activation of GlyRs. Electrophysiological recordings were performed in the fluorescent cells 24–72 h after transfection.
Whole-cell and outside-out recordings were performed at room temperature (20–25°C) using an EPC-9 amplifier (HEKA Elektronik, Germany). Cells were continuously superfused with external solution containing (mM): NaCl 140, CaCl2 2, KCl 2.8, MgCl2 4, HEPES 20, glucose 10; pH 7.4; 320–330 mOsm. Intracellular solution used for filling recording patch pipettes contained (mM): CsCl 140, CaCl2 6, MgCl2 2, MgATP 2, NaGTP 0.4, HEPES/CsOH 10, BAPTA (tetrapotassium salt) 2; pH 7.3; 290 mOsm. Two different protocols of solutions application were used in this study. […] A “ramp protocol” implies the gradual change of Vhold alternately from −80 to +80 mV and from +80 to −80 mV during 1 s, Vhold was fixed at −80 or +80 mV at the beginning and at the end of the ramp for 500 ms (Figure 2B).
Recording pipettes were pulled from borosilicate glass capillaries (Harvard Apparatus Ltd, USA) and had resistances of 5–10 MOhm. For the rapid replacement of the solutions, the fast application system was used. Three parallel rectangular tubes (100 × 100 μm) were positioned 40–50 μm above the recorded cell. The movement of the tubes was controlled by a computer-driven fast exchange system (SF 77A Perfusion Fast-Step, Warner, USA) allowing a 10–90% solution exchange in 3–5 ms, as measured by open electrode controls (1/10 external solution/water). Cells with low input resistance (<150 MOhm) and a rapid run-down (>30% with repetitive application) were excluded from analysis.
Electrophysiological recordings were performed using PatchMaster (HEKA Electronic, Germany) software.
The fractional electrical distance from the external side of the membrane (δ) at which bound NFA blocked the current was calculated using the Woodhull equation: IC50(V)=IC50(0) exp (−δFV/RT), where IC50(V) is IC50 at the given membrane potential, IC50(0) – at 0 mV, V – membrane potential and F, R, T have their usual meanings. δ was determined from a plot of IC50 values against membrane potential.

[1] = test system: ClC-K kidney Cl− channels; parameters: method as in Zifarelli et al., 2010; settings: biphasic: activates at low concentrations; ref Zifarelli et al., 2010; cited from earlier work

## O=C(O)c1cccnc1Nc1cccc(C(F)(F)F)c1 [NFA, Niflumic acid]
G254A-α1 GlyR; +30 mV, glycine 30 μM, representative, read-out: NFA IC50 (representative IC50 curve)
  IC50: 92 µM
G254A-α1 GlyR; +30 mV, glycine 100 μM, representative, read-out: NFA IC50 (representative IC50 curve)
  IC50: 106 µM
G254A-α1 GlyR; +80 mV, glycine 30 μM, ramp protocol, mean ± SEM, read-out: IC50 of NFA
  IC50: 64 ± 10 µM
G254A-α1 GlyR; +80 mV, glycine 30 μM, representative, read-out: NFA IC50 (representative IC50 curve)
  IC50: 68 µM
G254A-α1 GlyR; +80 mV, glycine 100 μM, representative, read-out: NFA IC50 (representative IC50 curve)
  IC50: 57 µM
G254A-α1 GlyR; Vhold +30 mV, glycine 30 μM
  inhibition at 30 µM: 23 ± 7%
  inhibition at 100 µM: 43 ± 10%
  inhibition at 300 µM: 76 ± 4%
G254A-α1 GlyR; Vhold −30 mV, glycine 30 μM
  inhibition at 30 µM: 22 ± 4%
  inhibition at 100 µM: 34 ± 6%
  inhibition at 300 µM: 52 ± 11%
G254A-α1 GlyR; MP +80 mV, increased agonist concentration (glycine 100 μM), mean ± SEM, read-out: IC50 of NFA
  IC50: 58 ± 8 µM
G254A-α1 GlyR; at negative potentials, glycine 30 μM, ramp protocol, mean ± SEM, read-out: IC50 of NFA
  IC50: 257 ± 25 µM
G254A-α1 GlyR; both examined agonist concentrations, Woodhull analysis
  level of the NFA binding site from the extracellular side: ~ 30%
G254A-α1 GlyR; glycine 30 μM, Woodhull analysis
  Fractional electrical distance (δ) from the extracellular side of the membrane: 0.37 ± 0.04 (n = 9)
G254A-α1 GlyR; glycine 100 μM, Woodhull analysis
  Fractional electrical distance (δ) from the extracellular side of the membrane: 0.30 ± 0.04 (n = 7)
G254A-α1 GlyR; membrane potential 30 mV, glycine 30 μM
  Hill coefficient (nH) of NFA interaction: 1.3 ± 0.08
G254A-α1 GlyR; membrane potential 50 mV, glycine 30 μM
  Hill coefficient (nH) of NFA interaction: 1.36 ± 0.11
G254A-α1 GlyR; membrane potential 70 mV, glycine 30 μM
  Hill coefficient (nH) of NFA interaction: 1.26 ± 0.1
G254A-α1 GlyR; membrane potential 80 mV, glycine 30 μM
  Hill coefficient (nH) of NFA interaction: 1.22 ± 0.09
G254A-α1 GlyR; membrane potential −50 mV, glycine 30 μM
  Hill coefficient (nH) of NFA interaction: 1.37 ± 0.18
G254A-α1 GlyR; membrane potential −70 mV, glycine 30 μM
  Hill coefficient (nH) of NFA interaction: 1.34 ± 0.1
G254A-α1 GlyR; membrane potential −80 mV, glycine 30 μM
  Hill coefficient (nH) of NFA interaction: 1.46 ± 0.16
G254A-α1 GlyR; −30 mV, glycine 30 μM, representative, read-out: NFA IC50 (representative IC50 curve)
  IC50: 185 µM
G254A-α1 GlyR; −30 mV, glycine 100 μM, representative, read-out: NFA IC50 (representative IC50 curve)
  IC50: 190 µM
G254A-α1 GlyR; −80 mV, glycine 30 μM, representative, read-out: NFA IC50 (representative IC50 curve)
  IC50: 230 µM
G254A-α1 GlyR; −80 mV, glycine 100 μM, representative, read-out: NFA IC50 (representative IC50 curve)
  IC50: 260 µM
[1]
  concentrations at which NFA blocks the channels: > 1 mM
